Measurements: patent US20130190345A1, “MATRINIC ACID/MATRINE DERIVATIVES AND PREPARATION METHODS AND USES THEREOF” (priority 2010, published 2013)
Values after ≈ are worked out from the molar mass of the structure shown.

Tests used:
Hsc70 [1] = experiment: Inhibition effects of compound on Hsc70 in Huh7.5 cultured cell (qRT-PCR, Western blotting); type: cell-based; parameters: key to Hsc70 down-regulation rate (%): “—” represents no significant inhibition rate
Description: 2×10^5/ml Huh7.5 cells (purchased from Vertex Pharmaceutical Co., USA) were inoculated in an amount of 3 ml on 6-well culture plate, placed in an incubator with 37° C., 5% CO2 content, saturation humidity, and cultured for 24 h, added with different drug solutions (DM122) formulated with culture medium, and cell control was set. Cultivation was continuously performed in the incubator with 37° C., 5% CO2 content, saturation humidity for 24 h, a kit for RNA extraction was used to extract intracellular RNA from the cells, and one-step qRT-PCR was used to determine intracellular contents of Hsc70 and GAPDHRNA. After the cultivation of cells was performed for 48 h, the cells were digested and harvested, then the cells were split with CytoBuster™ Protein Extraction Buffer that contained many kinds of protease inhibitors, total intracellular proteins were extracted, and Western blotting was used to analyze the contents of Hsc70 and GAPDH proteins. In comparison with the cell control, the inhibition effects on Hsc70 upon action of different drugs were analyzed.

2.2.15 cells = experiment: Drug TC50 by MTT detection; type: cell-based; conditions: Reed-Muench
Description: 2.2.15 cells (all cells were purchased from Vertex Pharmaceutical Co., USA) in exponential growth phase were inoculated on 96-well culture plate, 2×10^5 cells/well, added with culture media containing PFA diluted in different concentration rates, 3 wells for each diluted concentration, placed in 37° C. CO2—containing incubator and cultivated for 48 h; the supernatant was discarded, 100 μl of MTT (0.5 mg/ml) in culture medium was added, cultivation was continuously performed at 37° C. for 4 h; each well was added to 100 μl of 50% DMF-20% SDS destaining solution, stood at 37° C. overnight; ELISA was used to measure optical density at wavelength of 570 nm (0D570).
In each experiment, 3 cell control wells and 3 blank controls well were set, the results were used in formula, (cell control OD570-drug-medicated cell OD570)/cell control OD570, to calculate cell death rate (%), and Reed-Muench method was used to calculate half toxic concentration TC50.

HCV = experiment: Inhibition effects of compounds on HCV in Huh7.5 cultured cell after HCV infection; type: cell-based; conditions: for EC50 (half effective concentration): virus not given, stands beside HCV inhibition rate
Description: 1×10^5/ml Huh7.5 cells (purchased from Vertex Pharmaceutical Co., USA) were inoculated in an amount of 0.1 ml on 96-well culture plate, placed in an incubator with 37° C., 5% CO2 content and saturation humidity, and cultured for 24 h, HCV virus in 45 IU/cell was used to infect Huh7.5, different drug solutions (DM122) formulated with culture medium were added, and cell control and HCV infection control were set. Cultivation was continuously performed in the incubator with 37° C., 5% CO2 content and saturation humidity for 72 h, kit for RNA extraction was used to extract intracellular RNA, one-step qRT-PCR was used to determine intracellular contents of HCV and GAPDH RNA, and the inhibition effects of drug on HCV infection was analyzed. […] In comparison with the virus control group, the inhibition effects on HCV infection upon action of different drugs were analyzed. […] This experiment was repeated for 3 times, * indicated […] in comparison with control, ** indicated p<0.01 in comparison with control.

Hsc70 [2] = experiment: Detection of Hsc70 gene expression level upon action of compound on 2.2.15 cells (real-time fluorescent quantified PCR); type: cell-based; parameters: Hsc70 mRNA / Hsc70 down-regulation rate (%): unit not given here; conditions: for Hsc70 inhibition rate (down-regulation of Hsc70 expression activity, expressed in relative OMT ratio) / Hsc70 mRNA: 2.2.15 cells; for Hsc70 inhibition rate (down-regulation of Hsc70 expression activity, expressed in relative OMT ratio): relative to OMT (= 1); for Hsc70 mRNA: down-regulation of liver cell Hsc70 gene; for Hsc70 down-regulation rate (%): single value, concentration not given, values coincide with Table 1 relative OMT ratios
Description: 2.2.15 cells (purchased from Vertex Pharmaceutical Co., USA) in a number of 1×10^6 were inocubated to 6-well plate, cultured in a culture medium containing 10% fetal calf serum for 24 hr, the original culture medium was discarded, replaced with a culutre medium containing 400 μg/ml OMTR, which was used as control. Compounds were firstly dissolved in MEM to form 20 mg/ml mother liquid, which was diluted with culture medium when used and then applied to cells. The compounds of Examples 1-114 were separately used for treatment for 12, 24, 36 hr, then cells were harvested for extraction of RNA and DNA, then the changes of Hsc70 mRNA and HBV DNA were detected by real-time fluorescent quantified PCR.

SMILES | Hsc70 down-regulation rate (%) (Hsc70 [1]; 200 ug/ml (upper data)) | Hsc70 down-regulation rate (%) (Hsc70 [1]; 400 ug/ml (lower data)) | CC50 (concentration to cause poisoning in half cells) (2.2.15 cells) [µg/mL] | HCV inhibition rate (%) (HCV; 200 ug/ml (upper data)) | HCV inhibition rate (%) (HCV; 400 ug/ml (lower data)) | EC50 (half effective concentration) (HCV) [µg/mL] | Hsc70 inhibition rate (down-regulation of Hsc70 expression activity, expressed in relative OMT ratio) (Hsc70 [2]) | melting point [°C] | Hsc70 mRNA (Hsc70 [2]) | Hsc70 down-regulation rate (%) (Hsc70 [2])
O=C(O)CCCC1C2CCCN3CCCC(CN1Cc1cccc(F)c1)C23 (stereo not drawn) [DM-133, N-(3-fluorobenzyl) matrinic acid] | — | — | 527.8 (≈ 1410 µM) | 96.4 ± 0.8 | 98.6 ± 0.8 | 67.33 (≈ 180 µM) | 0.81 |  |  | 
O=C(O)CCC[C@@H]1[C@H]2CCCN3CCC[C@@H](CN1Cc1ccc([N+](=O)[O-])cc1)[C@@H]23 [DM-123, N-(4-nitrobenzyl) matrinic acid] | 65.9 ± 6.9% | 70.5 ± 2.3% | 455.7 (≈ 1130 µM) | 74.0 ± 7.8 | 81.1 ± 6.6 | 104.61 (≈ 261 µM) | −1.6 |  |  | 
Cc1ccc(CN2CC3CCCN4CCCC(C2CCCC(=O)O)C34)cc1 (stereo not drawn) [DM-140, N-(4-methylbenzyl) matrinic acid] | 53.8 ± 7.6% | — | >1000 | 83.4 ± 1.8 | 96.0 ± 1.2 | 18.68 (≈ 50.4 µM) | 0.77 |  |  | 
O=C(O)CCC[C@@H]1[C@H]2CCCN3CCC[C@@H](CN1Cc1ccc(OC(F)(F)F)cc1)[C@@H]23 [DM-162, N-(4-trifluoromethoxybenzyl) matrinic acid] | — | — | 431.6 (≈ 980 µM) | 96.2 ± 0.3 | 99.1 ± 0.1 | 34.06 (≈ 77.3 µM) |  |  |  | 
Cc1cccc(CN2CC3CCCN4CCCC(C2CCCC(=O)O)C34)c1 (stereo not drawn) [DM-139, N-(3-methylbenzyl) matrinic acid] | 20.5 ± 24.8% | — | 885.1 (≈ 2390 µM) | 88.5 ± 4.8 | 98.1 ± 1.0 | 98.65 (≈ 266 µM) | 1.39 |  |  | 
O=C1CC(O)CC2C3CCCN4CCCC(CN12)C34 (stereo not drawn) [Compound 5, β-hydroxyl matrine] |  |  |  |  |  |  |  | 211 to 213 | 50.4 ± 0.19 | 
COC1=CCC2C3CCCN4CCCC(CN2C1=O)C34 (stereo not drawn) [Compound 10, 14-methoxy sophocarpine] |  |  |  |  |  |  |  | 110 to 111 | 39.7 ± 0.16 | 
O=C(O)CCCC1C2CCCN3CCCC(CN1Cc1cccc([N+](=O)[O-])c1)C23 (stereo not drawn) [DM-137, N-(3-nitrobenzyl) matrinic acid] | — | — | 471.59 (≈ 1170 µM) | 99.8 ± 0.1 | 99.7 ± 0.0 | <12.34 | 1.31 |  |  | 
CC(=O)N1C[C@H]2CCCN3CCC[C@@H](C23)C1CCCC(=O)O (stereo partly drawn) |  |  |  |  |  |  |  | 127.4 to 129.6 |  | 
CC(=O)N1C[C@@H]2CCCN3CCC[C@@H](C23)C1CCCC(=O)O (stereo partly drawn) [DM-101, N-acetyl matrinic acid] |  |  |  |  |  |  | 0.73 | 196.8 to 198.9 |  | 
O=C(O)CCCC1NCC2CCCN3CCCC1C23 (stereo not drawn) [DM-100, matrinic acid] |  |  |  |  |  |  | 1.02 | 185.7 to 187.7 |  | 
Cc1ccccc1CN1CC2CCCN3CCCC(C1CCCC(=O)O)C23 (stereo not drawn) [DM-138, N-(2-methylbenzyl) matrinic acid] | 34.8 ± 2.1% | 21.1 ± 12.0% | 418.3 (≈ 1130 µM) | 91.5 ± 7.4 | 95.1 ± 2.9 | 82.49 (≈ 223 µM) | 1.35 |  |  | 
O=C(O)CCCC1C2CCCN3CCCC(CN1Cc1cccc(Cl)c1)C23 (stereo not drawn) [DM-125, N-(3-chlorobenzyl) matrinic acid] |  |  | >1000 |  |  | 34.35 (≈ 87.9 µM) | <10 |  |  | −67.97
O=C(O)CCC[C@@H]1[C@H]2CCCN3CCC[C@@H](CN1Cc1ccccc1F)[C@@H]23 [DM-135, N-(2-fluorobenzyl)matrinic acid] | 0.1 ± 5.6% | — | 620.68 (≈ 1660 µM) | 74.3 ± 8.2 | 90.5 ± 2.0 | 29.86 (≈ 79.7 µM) | 0.41 |  |  | 
COc1ccc(S(=O)(=O)N2CC3CCCN4CCCC(C34)C2CCCC(=O)O)cc1 (stereo not drawn) [DM-103, N-(4-methoxybenzenesulfonyl) matrinic acid] | 74.8 ± 5.6% | — | >1000 | 69.1 ± 14.5 | 91.4 ± 1.8 | 135.71 (≈ 311 µM) |  |  |  | 
Cc1ccc(C(=O)N2CC3CCCN4CCCC(C34)C2CCCC(=O)O)cc1 [Compound L7, (5R)—N-(p-methylbenzoyl)matrinic acid] | 63.3 ± 1.2% | — | >1000 | 89.5 ± 2.0 | 95.7 ± 1.1 | 291.73 (≈ 759 µM) |  |  |  | 
O=C(O)CCCC1C2CCCN3CCCC(CN1Cc1ccccc1Cl)C23 (stereo not drawn) [DM-124, N-(2-chlorobenzyl) matrinic acid] |  |  | 504.6 (≈ 1290 µM) |  |  | 68.27 (≈ 175 µM) | 0.32 |  |  | 0.32
O=C(O)CCCC1C2CCCN3CCCC(CN1Cc1ccc(F)cc1)C23 (stereo not drawn) [DM-132, N-(4-fluorobenzyl) matrinic acid] | 80.1 ± 5.7% | 32.8 ± 26.8% | 903.2 (≈ 2410 µM) | 67.7 ± 5.8 | 82.7 ± 5.6 | 52.86 (≈ 141 µM) | 0.99 |  |  | 
O=C1C(O)C(O)CC2C3CCCN4CCCC(CN12)C34 (stereo not drawn) [Compound 8, 13,14-dihydroxyl matrine] |  |  |  |  |  |  |  | 156 to 158 | 38.9 ± 0.13 | 
